Molecular target: T1, BluB/CobT2 (Propionibacterium freudenreichii, UniProt D7GJ95)
T1 construct: E. coli KRX, pFN18A; HaloTag removed by HaloTEV; N-terminal SDNA replaces initial Met
Experiment: LC-ESI-MS of alpha-ribazole phosphate formed
Assay type: biochemical
Details: 200 µM NaMN, 100 µM DMBI, 1 mM DTT, Tris-HCl pH 8.5, room temperature; CobT activity

T1 sequence (D7GJ95 entry or part of it): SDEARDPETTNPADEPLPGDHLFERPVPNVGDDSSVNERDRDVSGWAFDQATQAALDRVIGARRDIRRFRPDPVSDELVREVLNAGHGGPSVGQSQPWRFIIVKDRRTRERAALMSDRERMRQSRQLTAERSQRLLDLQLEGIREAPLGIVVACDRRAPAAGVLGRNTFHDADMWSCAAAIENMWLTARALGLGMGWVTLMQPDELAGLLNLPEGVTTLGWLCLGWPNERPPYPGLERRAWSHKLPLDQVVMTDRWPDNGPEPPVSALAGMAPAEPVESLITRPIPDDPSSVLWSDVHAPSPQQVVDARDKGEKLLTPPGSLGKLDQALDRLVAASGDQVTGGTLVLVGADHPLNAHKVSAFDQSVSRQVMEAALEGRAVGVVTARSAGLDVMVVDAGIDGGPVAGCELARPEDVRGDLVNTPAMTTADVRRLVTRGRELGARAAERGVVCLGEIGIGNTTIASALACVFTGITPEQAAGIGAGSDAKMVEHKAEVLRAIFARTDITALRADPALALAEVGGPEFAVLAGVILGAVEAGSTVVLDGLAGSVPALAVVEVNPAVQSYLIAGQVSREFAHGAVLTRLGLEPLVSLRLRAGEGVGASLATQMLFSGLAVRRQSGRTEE

## O=C([O-])c1ccc[n+]([C@@H]2O[C@H](COP(=O)(O)O)[C@@H](O)[C@H]2O)c1 [NaMN]
  LC-ESI-MS of alpha-ribazole phosphate formed: confirms that NaMN is the preferred substrate

From paper PMC4657239, “BluB/CobT2 fusion enzyme activity reveals mechanisms responsible for production of active form of vitamin B12 by Propionibacterium freudenreichii” (Microbial Cell Factories, 2015)
